Assay results taken from patent US11566028B2, “Bicyclic heterocycles as FGFR inhibitors” (Incyte Corporation, priority 2019, dated 2023).
Where two headings read alike, the source gives them in different places.

Key:
Assay type in all cases: biochemical
[1] = target: wild-type un-phosphorylated FGFR3 protein (Homo sapiens (Human), UniProt P22607); experiment: FGFR Enzymatic Assay (FRET peptide phosphorylation), FGFR3; settings: pre-incubated for 4 hours
[2] = target: FGFR1 (Homo sapiens (Human), UniProt P11362); experiment: FGFR Enzymatic Assay (FRET peptide phosphorylation), FGFR1; settings: pre-incubated for 4 hours
[3] = target: FGFR2 (Homo sapiens (Human), UniProt P21802); experiment: FGFR Enzymatic Assay (FRET peptide phosphorylation), FGFR2
Chain of FGFR2 (P21802 22-821): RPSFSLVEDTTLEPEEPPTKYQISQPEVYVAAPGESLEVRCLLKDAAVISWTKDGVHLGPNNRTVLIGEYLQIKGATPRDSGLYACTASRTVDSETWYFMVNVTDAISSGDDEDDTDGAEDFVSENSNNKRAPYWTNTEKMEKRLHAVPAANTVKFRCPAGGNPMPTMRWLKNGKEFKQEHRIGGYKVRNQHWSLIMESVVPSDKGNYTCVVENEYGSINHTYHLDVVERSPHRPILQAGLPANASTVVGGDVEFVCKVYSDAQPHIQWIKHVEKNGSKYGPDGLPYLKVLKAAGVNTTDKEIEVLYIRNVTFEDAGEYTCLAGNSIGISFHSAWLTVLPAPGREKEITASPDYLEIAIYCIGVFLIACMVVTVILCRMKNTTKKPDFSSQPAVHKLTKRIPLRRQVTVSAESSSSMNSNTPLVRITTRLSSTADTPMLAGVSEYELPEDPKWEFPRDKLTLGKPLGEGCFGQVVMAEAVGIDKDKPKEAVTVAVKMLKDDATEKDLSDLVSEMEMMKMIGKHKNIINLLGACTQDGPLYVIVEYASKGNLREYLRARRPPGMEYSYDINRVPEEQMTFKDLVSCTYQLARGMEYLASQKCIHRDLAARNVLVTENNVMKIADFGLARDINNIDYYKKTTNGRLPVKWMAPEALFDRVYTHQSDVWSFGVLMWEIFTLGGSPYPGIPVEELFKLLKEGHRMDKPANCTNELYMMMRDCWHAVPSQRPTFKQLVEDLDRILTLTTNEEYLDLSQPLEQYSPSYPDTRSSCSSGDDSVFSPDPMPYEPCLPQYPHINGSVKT

Chain of FGFR1 (P11362 22-822): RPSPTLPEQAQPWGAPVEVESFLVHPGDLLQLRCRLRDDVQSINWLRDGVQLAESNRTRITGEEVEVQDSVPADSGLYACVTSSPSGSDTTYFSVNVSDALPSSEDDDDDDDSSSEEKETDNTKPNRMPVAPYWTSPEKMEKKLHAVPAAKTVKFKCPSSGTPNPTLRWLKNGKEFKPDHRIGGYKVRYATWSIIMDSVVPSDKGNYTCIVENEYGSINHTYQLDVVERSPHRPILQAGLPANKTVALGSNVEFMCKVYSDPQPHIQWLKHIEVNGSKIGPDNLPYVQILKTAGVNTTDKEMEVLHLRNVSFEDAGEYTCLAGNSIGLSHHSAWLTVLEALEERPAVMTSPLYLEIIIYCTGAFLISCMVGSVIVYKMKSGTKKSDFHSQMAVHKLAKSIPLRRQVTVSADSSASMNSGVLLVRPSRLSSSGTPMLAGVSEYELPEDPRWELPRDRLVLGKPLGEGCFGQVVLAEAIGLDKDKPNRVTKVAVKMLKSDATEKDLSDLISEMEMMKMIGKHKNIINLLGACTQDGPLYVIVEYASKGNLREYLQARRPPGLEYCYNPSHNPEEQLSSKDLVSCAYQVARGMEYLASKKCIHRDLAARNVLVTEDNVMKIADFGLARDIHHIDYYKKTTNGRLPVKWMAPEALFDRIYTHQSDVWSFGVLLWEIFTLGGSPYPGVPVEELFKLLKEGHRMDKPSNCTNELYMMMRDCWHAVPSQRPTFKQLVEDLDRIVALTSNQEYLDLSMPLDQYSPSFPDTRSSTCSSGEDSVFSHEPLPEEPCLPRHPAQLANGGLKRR
Chain of wild-type un-phosphorylated FGFR3 protein (P22607 23-806): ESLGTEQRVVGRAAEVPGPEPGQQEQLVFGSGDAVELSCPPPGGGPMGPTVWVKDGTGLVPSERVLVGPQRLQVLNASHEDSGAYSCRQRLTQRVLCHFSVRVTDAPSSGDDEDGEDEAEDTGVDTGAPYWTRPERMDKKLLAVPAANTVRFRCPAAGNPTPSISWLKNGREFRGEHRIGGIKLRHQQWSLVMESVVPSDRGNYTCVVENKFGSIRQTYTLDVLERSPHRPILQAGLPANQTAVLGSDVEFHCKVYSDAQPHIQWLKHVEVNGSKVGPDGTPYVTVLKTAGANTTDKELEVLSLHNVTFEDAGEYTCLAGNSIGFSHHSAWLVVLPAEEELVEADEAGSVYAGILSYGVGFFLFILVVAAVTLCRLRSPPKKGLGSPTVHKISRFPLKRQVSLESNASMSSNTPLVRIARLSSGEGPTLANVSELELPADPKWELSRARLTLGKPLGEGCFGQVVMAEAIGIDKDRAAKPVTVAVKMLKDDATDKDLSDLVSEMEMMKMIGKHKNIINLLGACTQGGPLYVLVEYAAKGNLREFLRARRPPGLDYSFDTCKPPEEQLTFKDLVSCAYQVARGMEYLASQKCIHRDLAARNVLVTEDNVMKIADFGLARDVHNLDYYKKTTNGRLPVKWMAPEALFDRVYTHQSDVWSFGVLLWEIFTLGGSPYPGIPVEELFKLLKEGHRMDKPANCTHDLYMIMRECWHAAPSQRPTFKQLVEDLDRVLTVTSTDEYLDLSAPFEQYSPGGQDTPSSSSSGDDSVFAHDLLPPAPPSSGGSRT

| Compound | IC50 [1] | IC50 [2] | IC50 ([3]; pre-incubated for 4 hours) | IC50 [3] |
| --- | --- | --- | --- | --- |
| CNC(=O)c1cc(F)c(F)c(-c2cnn3cc(-c4ccc(C)nc4)c(O[C@H]4CCOC4)nc23)c1 [Example 15, (S)-3,4-Difluoro-N-methyl-5-(6-(6-methylpyridin-3-y1)-5-((tetrahydrofuran-3-yl)oxy)pyrazolo[1,5-a]pyrimidin-3-yl)benzamide] | < 10 nM | 30 to 200 nM | – | < 10 nM |
| CNC(=O)c1cc(C)c(F)c(-c2cnn3cc(-c4cnn(C5CCS(=O)(=O)C5)c4)c(N[C@H]4CCOC4)nc23)c1 (stereo partly drawn) [Example 38, 3-(6-(1-(1,1-Dioxidotetrahydrothiophen-3-y1)-1H-pyrazol-4-y1)-5-(((S)-tetrahydrofuran-3-yl)amino)pyrazolo[1,5-a]pyrimidin-3-y1)-4-fluoro-N,5-dimethylbenzamide] | < 10 nM | 30 to 200 nM | – | < 10 nM |
| CNC(=O)c1cc(-c2cnn3cc(-c4cnn(C5CCOC5)c4)c(N[C@H]4CCOC4)nc23)c(F)c(C(F)F)c1 (stereo partly drawn) [Example 49, 3-(Difluoromethyl)-4-fluoro-N-methyl-5-(6-(1-(tetrahydrofuran-3-yl)-1H-pyrazol-4-yl)-5-(((S)-tetrahydrofuran-3-yl)amino)pyrazolo[1,5-a]pyrimidin-3-y1)benzamide] | < 10 nM | 10 to 30 nM | – | < 10 nM |
| CNC(=O)c1cncc(-c2cnn3cc(-c4ccc(N5CCOCC5)nc4)c(O[C@H]4CCOC4)nc23)c1 [Example 20, (S)-N-Methyl-5-(6-(6-morpholinopyridin-3-yl)-5-((tetrahydrofuran-3-yl)oxy)pyrazolo[1,5-a]pyrimidin-3-yl)nicotinamide] | < 10 nM | 30 to 200 nM | < 10 nM | – |
| CNC(=O)c1cc(C)c(F)c(-c2cnn3cc(-c4cnc(N5CCN(C)CC5)o4)c(N[C@H]4CCOC4)nc23)c1 [Example 70, (S)-4-Fluoro-N,3-dimethyl-5-(6-(2-(4-methylpiperazin-1-yl)oxazol-5-yl)-5-((tetrahydrofuran-3-yl)amino)pyrazolo[1,5-a]pyrimidin-3-yl)benzamide] | < 10 nM | 30 to 200 nM | < 10 nM | – |

The next lines start with results.

| IC50 [1] | IC50 [2] | IC50 ([3]; pre-incubated for 4 hours) | Compound | IC50 [3] |
| --- | --- | --- | --- | --- |
| < 10 nM | 30 to 200 nM | < 10 nM | CNC(=O)c1cc(C)c(F)c(-c2cnn3cc(-c4cnn(CCO)c4)c(N[C@H]4CCOC4)nc23)c1 [Example 36, (S)-4-Fluoro-3-(6-(1-(2-hydroxyethyl)-1H-pyrazol-4-yl)-5-((tetrahydrofuran-3-yl)amino)pyrazolo[1,5-a]pyrimidin-3-yl)-N,5-dimethylbenzamide] | – |
| < 10 nM | 10 to 30 nM | < 10 nM | CNC(=O)c1cc(-c2cnn3cc(-c4cnn(C)c4)c(N[C@H]4CCOC4)nc23)c(F)c(C(F)F)c1 [Example 47, (S)-3-(Difluoromethyl)-4-fluoro-N-methyl-5-(6-(1-methyl-1H-pyrazol-4-yl)-5-((tetrahydrofuran-3-yl)amino)pyrazolo[1,5-a]pyrimidin-3-yl)benzamide] | – |
| < 10 nM | 30 to 200 nM | < 10 nM | CNC(=O)c1ccc(F)c(-c2cnn3cc(-c4cnn(C)c4)c(OC4CCOC4)nc23)c1 (racemic) [Example 2, 4-Fluoro-N-methyl-3-(6-(1-methyl-1H-pyrazol-4-yl)-5-((tetrahydrofuran-3-yl)oxy)pyrazolo[1,5-a]pyrimidin-3-yl)benzamide] | – |
| < 10 nM | 30 to 200 nM | 10 to 30 nM | CNC(=O)c1cc(C#N)cc(-c2cnn3cc(-c4ccncc4)c(O[C@H]4CCOC4)nc23)c1 [Example 30, (S)-3-Cyano-N-methyl-5-(6-(pyridin-4-yl)-5-((tetrahydrofuran-3-yl)oxy)pyrazolo[1,5-a]pyrimidin-3-yl)benzamide] | – |
| < 10 nM | 30 to 200 nM | < 10 nM | [2H]C([2H])([2H])NC(=O)c1cc(C)c(F)c(-c2cnn3cc(-c4cnc(C5CCN(C(C)C)CC5)o4)c(N[C@H]4CCOC4)nc23)c1 [Example 68, (S)-4-Fluoro-3-(6-(2-(1-isopropylpiperidin-4-yl)oxazol-5-yl)-5-((tetrahydrofuran-3-yl)amino)pyrazolo[1,5-a]pyrimidin-3-yl)-5-methyl-N-(methyl-d3)benzamide] | – |
